Data set [1] deals with globules rouges et les plaquettes. As to the kind of experiment: Red blood cell and platelet counts after 7 days of oral AZT, Muradimétide or both (Example 3, figures 9 and 10). It is filed as in vivo, souris femelles BALB/c. The following applies: p.o. once daily for 7 days: 100 mg/kg AZT, 50 mg/kg muradimétide, or both simultaneously; counts up to day 10. An excerpt:
La figure 9 représente l'effet du traitement per os de souris BALB/c pendant 7 jours consécutifs avec de l'AZT, du Muradimétide (MDM) ou un mélange de ceux-ci sur la numération plaquettaire.
La figure 10 représente l'effet du traitement per os de souris BALB/c pendant 7 jours consécutifs avec de l'AZT, du Muradimétide (MDM) ou un mélange de ceux-ci sur le nombre des globules rouges.
L'effet d'un traitement de 7 jours sur le nombre de globules rouges et de plaquettes est indiqué dans les figures 9 et 10 respectivement. Les numérations sont représentées en pourcentage de celles obtenues au jour 0. Des souris femelles BALB/c (5 par groupe) sont traitées une fois par jour pendant 7 jours consécutifs par 100 mg/kg d'AZT (Δ), 50 mg/kg de muradimétide (D) ou simultanément par 100 mg/kg d'AZT et 50 mg/kg de muradimétide (O). Les comptages de plaquettes ou de globules rouges ont été réalisés au jour 0 et jusqu'à 10 jours suivant le début du traitement. […] La tendance à l'augmentation de leur nombre apparaît entre les jours 4 et 5. En revanche, l'anémie qui pourrait être observée dans les groupes traités pourrait être due aux saignements répétés; néanmoins la vitesse et l'importance de l'anémie est grandement réduite chez les animaux traités avec le mélange des deux produits en comparaison avec celui observé dans le groupe traité par l'AZT seul. […]

For the next data set, the system named is myélocytes circulants. In words: Circulating myelocytes during two weeks of oral treatment, 4 days per week (Example 4, figure 11). It is filed as in vivo, souris. As to conditions: p.o. days 0, 1, 2, 3 and 7, 8, 9, 10; MDM 25 mg/kg, AZT 50 mg/kg or both. The method, then:
La figure 11 représente l'effet d'un traitement per os de souris pendant deux semaines consécutives (4 jours par semaine) avec l'AZT, le Muradimétide ou le mélange des deux sur le nombre des myélocytes circulants.
La figure 11 montre l'effet d'un traitement par le MDM à 25 mg/kg (X), de l'AZT à 50 mg/kg (O) et du mélange des deux (□) sur le comptage des myélocytes de souris traitées pendant 2 semaines aux jours 0, 1, 2, 3 de la première semaine et 7, 8, 9, 10 de la deuxième semaine. […] Si l'effet est surtout marqué au niveau de la première semaine, cela montre que le traitement nécessite un certain espace de temps entre les différents cycles de traitement et que des traitements répétés pourraient, le cas échéant, être utiles.

In another data set the test system is myélocytes. As to the kind of experiment: Comparison of oral Muradimétide and MDPA on myelocyte count after i.v. AZT (Example 10, figure 8). As to conditions: AZT 40 mg/kg i.v. days 0-3; MDPA 25 mg/kg p.o. 4 h before AZT. It is filed as in vivo, souris swiss femelles. An excerpt:
La figure 8 représente l'effet d'un traitement per os des souris avec du Muradimétide sur le changement de la numération myélocyte dans le sang circulant induite suite à une administration intra-veineuse d'AZT, deux dérivés de MDP étant comparés : le MDPA (Nac-Mur-L-ALa-D-Glu) et le Muradimétide.
Le dérivé utilisé pour mettre en évidence l'effet particulier du Muradimétide est le MDPA. La figure 8 indique l'effet sur des souris d'un traitement per os sur les changements de la numération de myélocyte induite suite à une administration intraveineuse d'AZT. Dans cette expérience, les souris swiss femelles ont été traitées de façon intraveineuse avec 40 mg par kg d'AZT aux jours 0, 1, 2 et 3. Des groupes de 5 souris ont reçu aux mêmes quatre jours et 4 heures avant l'AZT soit de l'eau physiologique, soit du MDPA à la dose de 25 mg par kg ou du Muradimétide par voie orale à la dose de 25 mg par kg. Les comptages de myélocytes ont été réalisés aux jours 0, 2, 3, 4 et 8. Les étoiles au-dessus des histogrammes ont la même signification que dans les diagrammes précédents.

For the compound `Cc1cn([C@H]2C[C@H](N=[N+]=[N-])[C@@H](CO)O2)c(=O)[nH]c1=O` [AZT, 3'-Azido-3'-desoxy-thymidine, reference compound], the “toxicité sur les plaquettes” value in data set [1] was “Aucune toxicité”. In addition, in the data set with myélocytes circulants, the “effet sur la mobilisation des CHS (comptage des myélocytes)” value is recorded as “strictement aucun effet”. Consider `CC(=O)N[C@H]1C(O)O[C@H](CO)[C@@H](O)[C@@H]1O[C@H](C)C(=O)N[C@@H](C)C(=O)N[C@H](CCC(=O)O)C(=O)O` (stereo partly drawn) [MDPA, Nac-Mur-L-ALa-D-Glu], for which the “effet antimyélotoxique et mobilisation des CSH dans la circulation sanguine” value in the data set on myélocytes is reported as “n'étant pas retrouvé”.
